According to US20110105565A1, “WATER SOLUBLE SMALL MOLECULE INHIBITORS OF THE CYSTIC FIBROSIS TRANSMEMBRANE CONDUCTANCE REGULATOR” (THE REGENTS OF THE UNIVERSITY OF CALIFORNIA, priority 2008, published 2011):
Read-outs that look alike come from different tables or passages of the source.

Columns and labels:
MDCK cells [1] = assay: MDCK cell apoptosis, in situ cell death detection kit; type: cell-based, Canine; conditions: 10 μM, 72 h
Method: Apoptosis was measured using the in situ cell death detection kit (ROCHE Diagnostics, Indianapolis, Ind.). MDCK cells were seeded on 8-chamber polystyrene tissue culture-treated glass slides and incubated with compounds T08 and G07 for 72 h at 5, 10 or 20 μM. The assay was performed according to manufacturer's instructions. Five microscopic fields were analyzed per condition. The apoptosis index was calculated as the percentage of nucleus-stained cells.

human wildtype CFTR = human wildtype CFTR (Homo sapiens, UniProt P13569); assay: Short-circuit current measurements, apical chloride current in FRT cells; type: cell-based; parameters: expressed in transfected cells; host or cells: FRT (Fisher rat thyroid) cells
Method: Short-circuit current measurements. FRT cells (stably expressing human wildtype CFTR) were cultured on [sequence] filters with 1 cm^2 surface area (Corning-Costar) to resistance >1,000 Ω·cm^2 as described (see, e.g., Ma et al., J. Clin. Invest. 110:1651-1658 ((2002)); Sonawane et al., FASEB J. 20:130-132 (2006)). Filters were mounted in an Easymount Chamber System (Physiologic Instruments, San Diego). For apical current measurements, the basolateral hemichamber contained (in mM): 130 NaCl, 2.7 KCl, 1.5 KH2PO4, 1 CaCl2, 0.5 MgCl2, 10 Na-HEPES, 10 glucose (pH 7.3). The basolateral membrane was permeabilized with amphotericin B (250 μg/ml) for 30 min. In the apical solution 65 mM NaCl was replaced by sodium gluconate, and CaCl2 was increased to 2 mM. Solutions were bubbled with 95% O2/5% CO2 and maintained at 37° C. Current was recorded using a DVC-1000 voltage-clamp (World Precision Instruments) using Ag/AgCl electrodes and 1 M KCl agar bridges.
CFTR was stimulated by cAMP agonist forskolin and increasing concentration of test compounds was added.

[2] = system: Pkd1^flox/−; Ksp-Cre mice; assay: Pkd1flox/-;Ksp-Cre mouse model of autosomal dominant polycystic kidney disease; type: in vivo; conditions: for kidney weight in Pkd1flox/-;Ksp-Cre mice (in words): 3 days treatment, vs vehicle-treated; for total numbers of cysts (of >50 μm diameter) per kidney: H&E sections, control 797±69; for total numbers of cysts (of >50 μm diameter) per kidney / serum creatinine and urea (in words): Pkd1flox/-;Ksp-Cre mice; for serum creatinine and urea (in words): vs vehicle control, age 5 and 9 days
Text: An in vivo model of kidney disease was employed to further explore the ability of CFTR inhibitors to reduce cyst formation in a vascular, perfused cellular environment. Pkd1^flox/−; Ksp-Cre mice were employed for this model, since these kidney-selective Pkd1 knockout mice manifest a fulminant course, with development of large cysts and renal failure in first 2 weeks of life, and represent a postnatal model of ADPKD. Pkd1 knockout mice normally die within 20 days. The Pkd1^flox/−; Ksp-Cre model is suitable, inter alia, for evaluating the efficacy of CFTR inhibitors on retarding the growth of cysts in the distal segments of the nephron, including medullary thick ascending limbs of the loops of Henle, distal convoluted tubule and collecting ducts.
Pkd1^flox mice and Ksp-Cre transgenic mice in a C57BL/6 background were generated as described (see, e.g., Shibazaki et al., J Am Soc Nephrol 13: 10-11, 2004; and Shao et al., J Am Soc Nephrol 13: 1837-1846, 2002). Ksp-Cre mice express Cre recombinase under the control of the Ksp-cadherin promoter (Shao et al.). Kidney-specific Pdk1 knock-out mice (Pkd1^flox/−; Ksp-Cre mice) were generated by cross-breeding Pkd1^flox/flox mice with Pkd1^+/−:Ksp-Cre mice. Neonatal mice (age 1 day) were genotyped by genomic PCR.
CFTR inhibitors (5-10 mg/kg/day) or saline DMSO vehicle control (0.05 mL/injection) were administrated by subcutaneous injection on the backs of neonatal mice four times a day for 3 or 7 days using a 1 cc insulin syringe, beginning at age 2 days (11 mice per group). Pkd1^flox/+; Ksp-Cre or Pkd1^flox/+ mice from the same litter were used as controls. During the treatment period, control and Pkd1^flox/−; Ksp-Cre mice, with or without CFTR inhibitor treatment, were indistinguishable in their activity and behavior. Body weight was measured at day 5 (3 days after treatment), at which time there was no difference in body weight in any of the mouse groups. Blood and urine samples were collected for measurements of CFTR inhibitor concentration and renal function. Kidneys were removed and weighed, and fixed for histological examination or homogenized for determination of CFTR inhibitor content.
To measure serum creatinine and urea (indicators of renal function), serum was obtained from whole blood by centrifugation at 5000×g for 5 min. Serum creatinine concentration was measured using a colorimetric assay kit (Cayman Chemical, Ann Arbor Mich.) following manufacturer's instructions. Urea concentration was measured using the colorimetric QUANTICHROM Urea Assay Kit (BioAssay Systems, Hayward, Calif.). Creatinine and urea concentrations were determined from optical densities using calibration standards.
For histological examination, kidneys were fixed with Bouin's fixative and embedded in paraffin. Three-μm thick sections were cut serially every 200 μm and stained with hematoxylin and eosin (H&E). Sections were imaged using a LEICA inverted epifluorescence microscope (DM 4000B) equipped with 2.5× objective lens and color CCD camera (Spot, model RT KE; Diagnostic Instruments Inc.). Cyst sizes in micrographs of kidney were determined using MATLAB 7.0 software.

MDCK cells [3] = assay: MDCK cell cyst model of polycystic kidney disease; type: cell-based, Canine; conditions: for effect on MDCK cyst enlargement (in words): 1 μM
Text: An MDCK cell model of polycystic kidney disease was used to screen CFTR inhibitors of the thiazolidinone and glycine hydrazide classes for reducing cyst formation and expansion. […] Culture of MDCK cells in three-dimensional collagen gels produces a polarized, single-layer, thinned epithelium surrounding a fluid-filled space, apical […] microvilli, a solitary cilium, and apical tight junctions (see, e.g., McAteer et al., Scan Elect Microsc (Pt 3): 1135-1150, 1986; McAteer et al., Scanning Microsc 2: 1739-1763, 1988; and Taide et al., Eur J Clin Invest 26: 506-513, 1996).
Type I MDCK cells (ATCC No. CCL-34) were cultured at 37° C. in a humidified 95% air/5% CO2 atmosphere in a 1:1 mixture of Dulbecco's modified Eagle's medium (DMEM) and Ham's F-12 nutrient medium supplemented with 10% fetal bovine serum (Hyclone), 100 U/mL penicillin and 100 μg/mL streptomycin. To generate cysts, four hundred MDCK cells were suspended in 0.4 ml of ice-cold Minimum Essential Medium containing 2.9 mg/mL collagen (PuRECOL, Inamed Biomaterials, Fremont Calif.), 10 mM HEPES, 27 mM NaHCO3, 100 U/mL penicillin and 100 μg/mL streptomycin (pH 7.4). The cell suspension was plated onto 24-well plates. After gelation, 1.5 mL of MDCK cell medium containing 10 μM forskolin was added to each well and plates were maintained at 37° C. in a 5% CO2 humidified atmosphere.
The compound structures together with their approximate CFTR inhibition potencies (expressed as IC50 values) are provided in FIGS. 3 and 4. Indicated IC50 values for T01-07, T10, T12-14 were reported by Ma et al. (J Clin Invest 110: 1651-1658 (2002)). IC50 values for T08, T11, and T16 were determined by short-circuit analysis performed according to methods described herein. Indicated IC50 values for G01-05, G8-16 were reported by Sonawane et al. (FASEB J. 20: 130-132 (2006); Sonawane et al., Gastroenterology 132:1234-44 (2007)). IC50 values for G06 and G07 were determined by short-circuit current analysis performed according to methods described herein.
Medium containing forskolin and test compounds was changed every 12 h. At day 6, cysts (with diameters >50 μm) and non-cyst cell colonies were counted by phase-contrast light microscopy at 20× magnification (546 nm monochromatic illumination) using a Nikon TE 2000-S inverted microscope. In some experiments, compounds were added to medium in the continued presence of forskolin from day 4 after seeding and the medium containing forskolin and compounds was changed every 12 h for 8 days. Micrographs showing the same cysts in collagen gels (identified by markings on plates) were obtained every 2 days. For determination of cyst growth, cyst diameters were measured using Image J software. At least 10 cysts/well and 3 wells/group were measured for each condition.

[4] = values in text, forskolin-stimulated CFTR, read-out: IC50 (short-circuit current)

Chain of human wildtype CFTR (P13569 whole entry): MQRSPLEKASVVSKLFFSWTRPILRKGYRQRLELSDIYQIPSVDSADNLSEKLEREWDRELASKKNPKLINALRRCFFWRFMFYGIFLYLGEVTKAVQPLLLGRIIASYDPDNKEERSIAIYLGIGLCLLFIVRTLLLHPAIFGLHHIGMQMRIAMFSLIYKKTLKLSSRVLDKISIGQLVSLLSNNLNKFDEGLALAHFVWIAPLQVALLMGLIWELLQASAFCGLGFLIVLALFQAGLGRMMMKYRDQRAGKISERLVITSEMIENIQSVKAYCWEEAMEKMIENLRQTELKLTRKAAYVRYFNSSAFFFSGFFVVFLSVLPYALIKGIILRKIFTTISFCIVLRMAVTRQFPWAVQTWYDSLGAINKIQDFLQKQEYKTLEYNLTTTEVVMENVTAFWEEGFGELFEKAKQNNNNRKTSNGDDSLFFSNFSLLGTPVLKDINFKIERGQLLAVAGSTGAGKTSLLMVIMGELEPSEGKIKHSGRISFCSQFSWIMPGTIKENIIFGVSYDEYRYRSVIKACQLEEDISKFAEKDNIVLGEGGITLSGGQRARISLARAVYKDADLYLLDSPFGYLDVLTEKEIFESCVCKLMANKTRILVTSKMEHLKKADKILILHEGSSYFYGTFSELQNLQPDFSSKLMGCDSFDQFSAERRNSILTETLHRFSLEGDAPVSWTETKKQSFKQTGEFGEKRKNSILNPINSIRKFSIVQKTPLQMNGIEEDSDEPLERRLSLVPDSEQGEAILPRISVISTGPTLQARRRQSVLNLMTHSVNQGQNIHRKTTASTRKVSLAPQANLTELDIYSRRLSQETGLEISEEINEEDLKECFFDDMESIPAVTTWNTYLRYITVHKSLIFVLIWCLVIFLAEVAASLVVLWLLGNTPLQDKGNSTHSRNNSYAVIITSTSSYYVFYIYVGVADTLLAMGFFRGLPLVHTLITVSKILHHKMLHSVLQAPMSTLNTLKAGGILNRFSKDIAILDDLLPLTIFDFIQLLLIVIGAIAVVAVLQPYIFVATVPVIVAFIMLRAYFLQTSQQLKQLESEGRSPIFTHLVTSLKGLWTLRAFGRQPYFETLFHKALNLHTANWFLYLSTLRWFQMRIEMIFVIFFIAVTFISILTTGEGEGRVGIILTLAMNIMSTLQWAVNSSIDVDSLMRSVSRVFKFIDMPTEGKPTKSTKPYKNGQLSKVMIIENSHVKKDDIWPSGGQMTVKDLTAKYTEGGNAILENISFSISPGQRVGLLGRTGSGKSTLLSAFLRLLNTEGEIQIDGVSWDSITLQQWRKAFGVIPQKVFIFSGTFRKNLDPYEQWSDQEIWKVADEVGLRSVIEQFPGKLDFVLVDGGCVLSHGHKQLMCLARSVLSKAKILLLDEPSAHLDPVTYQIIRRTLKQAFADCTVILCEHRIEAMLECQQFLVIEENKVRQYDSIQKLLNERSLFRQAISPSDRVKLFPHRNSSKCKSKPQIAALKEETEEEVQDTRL

Compound	MDCK cell apoptosis (in words) (MDCK cells [1])	IC50 (human wildtype CFTR; [4]) [nM]	kidney weight in Pkd1flox/-;Ksp-Cre mice (in words) [2]	total numbers of cysts (of >50 μm diameter) per kidney [2]	serum creatinine and urea (in words) [2]	effect on MDCK cyst enlargement (in words) (MDCK cells [3])	effect on MDCK cyst enlargement/formation (in words) (MDCK cells [3]; 10 μM)	inhibition at 10 µM (MDCK cells [3]; Canis lupus familiaris, MDCK, 10 μM, forskolin 10 μM, cyst diameter, read-out: inhibition of cyst growth) [%]	IC50 (human wildtype CFTR; Table 3, inhibition potency, read-out: IC50) [nM]	inhibition kinetics (in words) (human wildtype CFTR; compared with CFTRinh-172 or Oxo-172, listed as Tetrazolo-172)	inhibition of CFTR in short-circuit current analysis (in words) (human wildtype CFTR; increasing concentration, forskolin-stimulated)
O=C1/C(=C/c2ccc(-c3nn[nH]n3)cc2)SC(=S)N1c1cccc(C(F)(F)F)c1 [Compound 6, (Z)-5-(4-(1H-tetrazol-5-yl)benzylidene)-2-thioxo-3-(3-(trifluoromethyl)phenyl)thiazolidin-4-one]	did not cause MDCK cell apoptosis	500 to 1000									
O=C1/C(=C/c2ccc(-c3nnn[nH]3)cc2)SC(=S)N1c1cccc(C(F)(F)F)c1 [Compound 6, (Z)-5-(4-(1H-tetrazol-5-yl)benzylidene)-2-thioxo-3-(3-(trifluoromethyl)phenyl)thiazolidin-4-one]		800	reduced kidney weight significantly	457±32	significantly reduced	strongly inhibited cyst enlargement	slowed cyst enlargement	> 70	760 ± 200	slower inhibition kinetics	dose dependant inhibition
N-2-naphthalenyl-2-hydroxyethyl-[(3,5-dibromo-2,4-dihydroxyphenyl)methylene]phenylglycinehydrazide [Compound G07]	did not cause MDCK cell apoptosis		reduced kidney weight significantly	316±45	significantly reduced	strongly inhibited cyst enlargement					
